SMILES strings stand for the structures. pIC50: −log10 of the molar value. Where two headings read alike, the source gives them in different places.

One may read the inhibition as the percentage by which the read-out fell short of the control.

In one data set the target is T1, human TrkA (Homo sapiens, UniProt P04629).
T1 construct: purchased Lifetechnologies PV3144
Put plainly: Human TrkA inhibition assay. It is filed as biochemical. The settings on record: human TrkA phosphorylation inhibition, ATP 500 μmol/L. Put shortly:
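Human TrkA (1 nmol/L final) preincubated 15 min with compound, then FL-peptide 27 (1.5 μmol/L) and ATP (500 μmol/L) added; 120 min at 37 °C in HEPES/MgCl2/DTT buffer. Mobility-shift measurement of phosphorylated vs non-phosphorylated substrate; IC50 by logistic regression over 3-fold dilution series.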

The next data set addresses T2, CYP3A4 (Homo sapiens, UniProt P08684).
T2 construct: from tissue; host or cells: pooled human liver microsomes
Put plainly: CYP3A4 (MDZ) MBI test. The format is in vitro ADME. The settings on record: pooled human liver microsomes, midazolam 1-hydroxylation, preincubation 0 vs 30 min. How it is done: CYP3A4 (MDZ) MBI test is a test of investigating mechanism based inhibition potential on CYP3A4 by the enhancement of inhibitory degree of a metabolic reaction caused by the compound of the present invention. CYP3A4 inhibition was evaluated using pooled human liver microsomes by 1-hydroxylation reaction of midazolam (MDZ) as a marker reaction.
The reaction conditions are as follows: substrate, 10 μmol/L MDZ; pre-reaction time, 0 or 30 minutes; substrate reaction time, 2 minutes; reaction temperature, 37° C.; protein content of pooled human liver microsomes, at pre-reaction time 0.5 mg/mL, at reaction time […] (at 10-fold dilution); concentrations of the compound of the present invention, 1, 5, 10, 20 μmol/L (four points).
Pooled human liver microsomes and a solution of the compound of the present invention in K-Pi buffer (pH 7.4) as a pre-reaction solution were added to a 96-well plate at the composition of the pre-reaction. A part of pre-reaction solution was transferred to another 96-well plate, and 1/10 diluted by K-Pi buffer containing a substrate. NADPH as a co-factor was added to initiate a reaction as a marker reaction (preincubation 0 min). After a predetermined time of a reaction, methanol/acetonitrile=l/1 (v/v) solution was added to stop the reaction. In addition, NADPH was added to a remaining pre-reaction solution to initiate a pre-reaction (preincubation 30 min). After a predetermined time of a pre-reaction, a part was transferred to another 96-well plate, and 1/10 diluted by K-Pi buffer containing a substrate to initiate a reaction as a marker reaction. After a predetermined time of a reaction, methanol/acetonitrile=1/1 (v/v) solution was added to stop the reaction. After centrifuged at 3000 rpm for 15 minutes, 1-hydroxymidazolam in the supernatant was quantified by LC/MS/MS.
The sample adding DMSO as a solvent to a reaction system instead of a solution dissolving the compound of the present invention was adopted as a control (100%). Remaining activity (%) was calculated at each concentration of the compound of the present invention compared to a control, and IC value was calculated by reverse-presumption by a logistic model using a concentration and an inhibition rate. Shifted IC value was calculated as “IC of preincubation at 0 min/IC of preincubation at 30 min”. When a shifted IC is 1.5 or more, this is defined as positive. When a shifted IC is 1.0 or less, this is defined as negative.
For orientation: Liver microsomes are a subcellular fraction often used to study metabolism.

Another data set concerns the target T3, hERG channel (IKr) (Homo sapiens, UniProt Q12809).
T3 construct: expressed in transfected cells; host or cells: CHO cells
Briefly: hERG test (whole cell patch clamp, IKr). The format is cell-based. The settings on record: CHO cells expressing hERG channel, read-out: % inhibition of tail peak current (IKr); for inhibition at 30 μmol/L: pH 7.4, 30 μmol/L of test compound. An excerpt: For the purpose of assessing risk of an electrocardiogram QT interval prolongation of the compound of the present invention, effects of the compound of the present invention on delayed rectifier K+ current (IKr), which plays an important role in the ventricular repolarization process, was studied using CHO cells expressing human ether-a-go-go related gene (hERG) channel.
After a cell was retained at a membrane potential of −80 mV by whole cell patch clamp method using an automated patch clamp system (QPatch; Sophion Bioscience A/S) and gave a leak potential of −50 mV, IKr induced by depolarization pulse stimulation at +20 mV for 2 seconds, and further, repolarization pulse stimulation at −50 mV for 2 seconds, was recorded. A vehicle, which is the 0.1-0.3% dimethyle sulfoxide solution in extracellular solution (NaCl: 145 mmol/L, KCl: 4 mmol/L, CaCl2: 2 mmol/L, MgCl2: 1 mmol/L, glucose: 10 mmol/L, HEPES (4-(2-hydroxyethyl)-1-piperazineethanesulfonic acid): 10 mmol/L, pH7.4), or the compound of the present invention had been dissolved at an objective concentration in the extracellular solution is applied to the cell at room temperature for 7 minutes or more. From the recording IKr, an absolute value of the tail peak current was measured based on the current value at the resting membrane potential using analysis software (QPatch assay software; Sophion Bioscience A/S). Further, the % inhibition of tail peak current for the compound of the present invention relative to the tail peak current after application of the vehicle is calculated to assess influence of the compound of the present invention on IKr.

T3 sequence (Q12809 whole entry): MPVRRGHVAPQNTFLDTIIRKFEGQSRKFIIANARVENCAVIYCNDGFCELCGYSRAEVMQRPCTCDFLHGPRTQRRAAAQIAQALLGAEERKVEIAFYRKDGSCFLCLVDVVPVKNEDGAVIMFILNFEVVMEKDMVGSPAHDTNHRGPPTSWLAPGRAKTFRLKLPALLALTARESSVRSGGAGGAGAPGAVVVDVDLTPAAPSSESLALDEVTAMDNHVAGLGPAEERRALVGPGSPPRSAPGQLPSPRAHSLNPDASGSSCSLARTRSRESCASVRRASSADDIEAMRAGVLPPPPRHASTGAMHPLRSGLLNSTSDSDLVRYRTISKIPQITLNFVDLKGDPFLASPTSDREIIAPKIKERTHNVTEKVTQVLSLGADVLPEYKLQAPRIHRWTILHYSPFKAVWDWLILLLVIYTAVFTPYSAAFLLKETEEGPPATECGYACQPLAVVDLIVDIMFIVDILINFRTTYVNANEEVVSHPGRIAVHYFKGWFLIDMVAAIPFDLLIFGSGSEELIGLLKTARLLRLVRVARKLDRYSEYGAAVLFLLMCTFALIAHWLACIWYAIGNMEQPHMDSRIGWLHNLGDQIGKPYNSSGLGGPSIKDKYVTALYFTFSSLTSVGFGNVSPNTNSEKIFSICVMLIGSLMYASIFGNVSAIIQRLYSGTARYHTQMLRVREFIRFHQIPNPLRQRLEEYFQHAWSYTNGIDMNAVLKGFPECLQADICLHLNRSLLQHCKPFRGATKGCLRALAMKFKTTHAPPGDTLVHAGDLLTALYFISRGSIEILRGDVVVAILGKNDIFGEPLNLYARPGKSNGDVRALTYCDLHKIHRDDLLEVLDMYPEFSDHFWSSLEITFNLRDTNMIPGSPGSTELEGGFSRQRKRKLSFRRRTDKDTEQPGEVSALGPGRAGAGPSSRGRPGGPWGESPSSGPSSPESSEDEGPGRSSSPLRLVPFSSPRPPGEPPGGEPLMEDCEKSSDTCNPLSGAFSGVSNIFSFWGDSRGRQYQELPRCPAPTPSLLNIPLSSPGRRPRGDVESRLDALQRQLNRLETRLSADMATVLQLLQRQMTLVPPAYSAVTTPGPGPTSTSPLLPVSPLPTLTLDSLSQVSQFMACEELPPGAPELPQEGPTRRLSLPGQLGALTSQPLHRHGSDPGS
T2 sequence (P08684 whole entry): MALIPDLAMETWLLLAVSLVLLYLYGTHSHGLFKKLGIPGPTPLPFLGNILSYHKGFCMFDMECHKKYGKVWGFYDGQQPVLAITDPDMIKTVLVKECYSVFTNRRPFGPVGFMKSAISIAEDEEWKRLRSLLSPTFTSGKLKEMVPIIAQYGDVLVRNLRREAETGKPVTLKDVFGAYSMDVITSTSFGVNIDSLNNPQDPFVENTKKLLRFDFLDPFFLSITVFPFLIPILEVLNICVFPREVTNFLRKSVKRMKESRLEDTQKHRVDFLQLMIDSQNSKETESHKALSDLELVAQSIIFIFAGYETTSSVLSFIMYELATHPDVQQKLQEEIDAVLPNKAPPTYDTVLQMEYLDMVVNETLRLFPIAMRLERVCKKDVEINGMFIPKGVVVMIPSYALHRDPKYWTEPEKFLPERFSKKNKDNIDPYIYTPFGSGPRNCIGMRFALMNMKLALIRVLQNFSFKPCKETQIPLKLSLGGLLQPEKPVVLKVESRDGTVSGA
T1 sequence (P04629 33-796): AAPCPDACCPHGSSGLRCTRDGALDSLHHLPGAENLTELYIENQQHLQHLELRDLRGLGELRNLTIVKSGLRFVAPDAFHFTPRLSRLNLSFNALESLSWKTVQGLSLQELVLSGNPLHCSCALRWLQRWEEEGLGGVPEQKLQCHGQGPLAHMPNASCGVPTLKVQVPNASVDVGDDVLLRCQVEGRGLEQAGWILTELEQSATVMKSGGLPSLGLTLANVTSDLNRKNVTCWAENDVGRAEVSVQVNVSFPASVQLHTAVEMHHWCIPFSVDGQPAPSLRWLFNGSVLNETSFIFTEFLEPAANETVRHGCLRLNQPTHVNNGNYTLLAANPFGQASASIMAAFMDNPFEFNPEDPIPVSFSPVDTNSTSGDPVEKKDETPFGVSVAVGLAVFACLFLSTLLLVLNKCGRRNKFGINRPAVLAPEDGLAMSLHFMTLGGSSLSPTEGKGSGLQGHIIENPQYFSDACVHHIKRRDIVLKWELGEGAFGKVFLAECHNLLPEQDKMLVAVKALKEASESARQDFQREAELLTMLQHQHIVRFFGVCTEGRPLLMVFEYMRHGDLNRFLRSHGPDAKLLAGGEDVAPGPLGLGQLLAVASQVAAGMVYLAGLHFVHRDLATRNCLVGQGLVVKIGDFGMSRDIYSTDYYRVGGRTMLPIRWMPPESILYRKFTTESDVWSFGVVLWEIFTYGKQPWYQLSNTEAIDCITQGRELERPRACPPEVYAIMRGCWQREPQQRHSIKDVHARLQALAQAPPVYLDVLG

On to `COCC[C@@H]1C[C@@H](NC(=O)Nc2c(C)c(-c3cnc(C)nc3)nn2-c2ccccc2)[C@H](c2ccnc(F)c2)N1C` [Compound I-173], for which the pIC50 on human TrkA (read-out: IC50 value) is 9.04. Further, the “mechanism based inhibition of CYP3A4 (shifted IC)” value on CYP3A4 is reported as “Negative (When a shifted IC is 1.0 or less, this is defined as negative)”.

With `COCC[C@@H]1C[C@@H](NC(=O)Nc2c(C)c(-c3cnn(C)c3)nn2-c2ccccc2)[C@H](c2ccnc(F)c2)N1C` [Compound I-68], the pIC50 at human TrkA (read-out: IC50_nM) is greater than 7.00. Also, at hERG channel (IKr), the inhibition at 30 μmol/L turned out to be 12.8%. In addition, the “mechanism based inhibition of CYP3A4 (shifted IC)” value on CYP3A4 is reported as “Negative (When a shifted IC is 1.0 or less, this is defined as negative)”.

As for `COCCN1C[C@@H](NC(=O)Nc2c(C)c(-c3cnn(C)c3)nn2-c2ccccc2)[C@H](c2cnc(F)c(F)c2)C1` (racemic) [Compound I-5], the pIC50 at human TrkA (read-out: IC50_nM) is greater than 7.00. Also, at hERG channel (IKr), the inhibition at 30 μmol/L is 35.3%. Also, the “mechanism based inhibition of CYP3A4 (shifted IC)” value at CYP3A4 is recorded as “Negative (When a shifted IC is 1.0 or less, this is defined as negative)”.

On to `COCCN1C[C@@H](NC(=O)Nc2c(C)c(-c3cnc(CO)nc3)nn2-c2ccccc2)[C@H](c2ccccc2)C1` (racemic) [Compound I-10], for which, at human TrkA (read-out: IC50_nM), the pIC50 is greater than 7.00. The inhibition at 5 μmol/L at hERG channel (IKr) (pH 7.4, 5 μmol/L of test compound) worked out at 34.6%.

As for `COCC[C@@H]1C[C@@H](NC(=O)Nc2c(C)c(-c3cnc(C)nc3)nn2-c2ccccc2)[C@H](c2ccnc(F)c2)C1` [Compound I-164], the pIC50 on human TrkA (read-out: IC50 value) was 8.74. In addition, the “mechanism based inhibition of CYP3A4 (shifted IC)” value at CYP3A4 is “Negative (When a shifted IC is 1.0 or less, this is defined as negative)”.

As for `COCC[C@@H]1C[C@@H](NC(=O)Nc2c(C)c(-c3cnc(OC)nc3)nn2-c2ccccc2)[C@H](c2ccnc(F)c2)N1C` [Compound I-92], on human TrkA (read-out: IC50 value), the pIC50 was 9.13. Also, at hERG channel (IKr), the inhibition at 30 μmol/L was determined as 19.3%.
